ChEMBL document CHEMBL5244269, “Improving metabolic stability and removing aldehyde oxidase liability in a 5-azaquinazoline series of IRAK4 inhibitors” (Bioorg Med Chem, 2020)

Key:
OCI-Ly10 [1] = assay: Growth inhibition of human OCILY10 cells at 3.3 uM incubated for 3 days (Rvb= -3%); type: functional; settings: OCI-Ly10, 72 h, time 3 day, read-out: GI
OCI-Ly10 [2] = assay: Growth inhibition of human OCILY10 cells at 0.33 uM incubated for 3 days in presence of 0.33 uM acalabrutinib relative to control; type: functional; settings: OCI-Ly10, 72 h, time 3 day, read-out: GI
OCI-Ly10 [3] = assay: Growth inhibition of human OCILY10 cells at 0.33 uM incubated for 3 days in presence of 0.017 uM acalabrutinib relative to control; type: functional; settings: OCI-Ly10, 72 h, time 3 day, read-out: GI
OCI-Ly10 [4] = assay: Growth inhibition of human OCILY10 cells at 0.33 uM incubated for 3 days in presence of 0.17 uM acalabrutinib relative to control; type: functional; settings: OCI-Ly10, 72 h, time 3 day, read-out: GI
[5] = target: T1, Interleukin-1 receptor-associated kinase 4 (Homo sapiens, UniProt Q9NWZ3); assay: Inhibition of IRAK4 (unknown origin) in presence of ATP by enzymatic assay
T1 sequence (Q9NWZ3 whole entry): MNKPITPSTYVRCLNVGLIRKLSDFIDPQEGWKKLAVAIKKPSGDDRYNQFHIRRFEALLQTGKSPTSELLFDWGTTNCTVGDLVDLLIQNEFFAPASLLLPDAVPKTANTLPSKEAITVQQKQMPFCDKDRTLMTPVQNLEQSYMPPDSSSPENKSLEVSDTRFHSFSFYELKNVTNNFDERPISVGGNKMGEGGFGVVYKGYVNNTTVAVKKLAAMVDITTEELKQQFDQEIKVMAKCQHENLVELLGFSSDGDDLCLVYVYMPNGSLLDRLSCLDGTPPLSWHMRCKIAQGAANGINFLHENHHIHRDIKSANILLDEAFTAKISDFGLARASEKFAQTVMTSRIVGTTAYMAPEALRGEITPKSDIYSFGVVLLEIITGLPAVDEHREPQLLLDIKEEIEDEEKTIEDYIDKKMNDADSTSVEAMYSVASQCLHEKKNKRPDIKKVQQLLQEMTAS

[6] = target: T2, Receptor-type tyrosine-protein kinase FLT3 (Homo sapiens, UniProt P36888); assay: Inhibition of FLT3 (unknown origin) in presence of 600 uM ATP
T2 sequence (P36888 whole entry): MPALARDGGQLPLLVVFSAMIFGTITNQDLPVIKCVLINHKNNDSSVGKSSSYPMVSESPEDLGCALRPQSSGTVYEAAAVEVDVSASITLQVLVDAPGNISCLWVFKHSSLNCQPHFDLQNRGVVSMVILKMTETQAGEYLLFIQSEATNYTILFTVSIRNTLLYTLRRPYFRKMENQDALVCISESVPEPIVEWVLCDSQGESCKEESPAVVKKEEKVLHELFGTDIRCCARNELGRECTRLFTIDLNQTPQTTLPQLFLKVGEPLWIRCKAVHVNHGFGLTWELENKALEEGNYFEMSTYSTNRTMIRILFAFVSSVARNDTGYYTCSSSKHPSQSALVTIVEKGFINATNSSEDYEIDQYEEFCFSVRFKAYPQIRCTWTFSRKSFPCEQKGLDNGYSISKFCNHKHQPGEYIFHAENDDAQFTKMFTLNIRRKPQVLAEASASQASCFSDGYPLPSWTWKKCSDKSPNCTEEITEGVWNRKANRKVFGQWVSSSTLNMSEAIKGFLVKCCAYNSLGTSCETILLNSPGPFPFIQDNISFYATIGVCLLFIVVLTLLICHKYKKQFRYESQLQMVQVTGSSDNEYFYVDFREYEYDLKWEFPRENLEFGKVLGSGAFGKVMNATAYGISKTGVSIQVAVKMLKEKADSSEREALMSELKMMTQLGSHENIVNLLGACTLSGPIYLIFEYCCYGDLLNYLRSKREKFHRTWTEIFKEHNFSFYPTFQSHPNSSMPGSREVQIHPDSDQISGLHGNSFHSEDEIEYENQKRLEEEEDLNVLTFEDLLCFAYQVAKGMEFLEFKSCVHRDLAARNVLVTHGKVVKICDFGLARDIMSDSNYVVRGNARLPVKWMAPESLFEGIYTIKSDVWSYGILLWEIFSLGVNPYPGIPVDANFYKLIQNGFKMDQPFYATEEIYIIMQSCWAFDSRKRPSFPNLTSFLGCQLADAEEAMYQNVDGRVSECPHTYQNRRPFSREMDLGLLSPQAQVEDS

SUD4 [7] = assay: Growth inhibition of human SU-DHL-4 cells at 0.17 uM incubated for 3 days in presence of 0.003 uM acalabrutinib relative to control; type: functional; settings: SU-DHL-4, 72 h, time 3 day, read-out: GI
OCI-Ly10 [8] = assay: Growth inhibition of human OCILY10 cells at 10 uM incubated for 3 days in presence of 0.033 uM acalabrutinib relative to control; type: functional; settings: OCI-Ly10, 72 h, time 3 day, read-out: GI
SUD4 [9] = assay: Growth inhibition of human SU-DHL-4 cells at 3.3 uM incubated for 3 days in presence of 0.33 uM acalabrutinib relative to control; type: functional; settings: SU-DHL-4, 72 h, time 3 day, read-out: GI
[10] = Apparent permeability across apical to basolateral side in human Caco-2 cells measured for 360 mins by liquid scintillation counting based analysis; type: ADME, cell-based
SUD4 [11] = assay: Growth inhibition of human SU-DHL-4 cells at 0.17 uM incubated for 3 days in presence of 0.017 uM acalabrutinib relative to control; type: functional; settings: SU-DHL-4, 72 h, time 3 day, read-out: GI
SUD4 [12] = assay: Growth inhibition of human SU-DHL-4 cells at 1.7 uM incubated for 3 days in presence of 0.033 uM acalabrutinib relative to control; type: functional; settings: SU-DHL-4, 72 h, time 3 day, read-out: GI
OCI-Ly10 [13] = assay: Growth inhibition of human OCILY10 cells at 1.7 uM incubated for 3 days in presence of 0.17 uM acalabrutinib relative to control; type: functional; settings: OCI-Ly10, 72 h, time 3 day, read-out: GI
OCI-Ly10 [14] = assay: Growth inhibition of human OCILY10 cells at 10 uM incubated for 3 days (Rvb= -3%); type: functional; settings: OCI-Ly10, 72 h, time 3 day, read-out: GI
[15] = Metabolic stability in human hepatocytes assessed as intrinsic clearance measured per 10^6 cells; type: ADME, cell-based, Hepatocyte; settings: read-out: CLH
[16] = Metabolic stability in human liver microsomes assessed as intrinsic clearance; type: ADME, Microsome; settings: read-out: CLH

Cc1ncc(-c2nc3c(OC4(C)CC4)nc(Nc4cnn(C5CCN(C)CC5)c4)nc3cc2F)cn1
inhibition of growth at 3.3 µM (OCI-Ly10 [1]): 76%
inhibition of growth at 0.33 µM (OCI-Ly10 [2]): 172%
inhibition of growth at 0.33 µM (OCI-Ly10 [3]): 122%
inhibition of growth at 0.33 µM (OCI-Ly10 [4]): 169%
IC50 [5]: 3 nM
IC50 [6]: > 9000 nM
inhibition of growth at 0.17 µM (SUD4 [7]): -1%
inhibition of growth at 10 µM (OCI-Ly10 [8]): 197%
inhibition of growth at 3.3 µM (SUD4 [9]): -2%
Papp A→B at 6 h [10]: 31 ×10⁻⁶ cm/s
inhibition of growth at 0.17 µM (SUD4 [11]): 0%
inhibition of growth at 1.7 µM (SUD4 [12]): -4%
inhibition of growth at 1.7 µM (OCI-Ly10 [13]): 190%
inhibition of growth at 10 µM (OCI-Ly10 [14]): 148%
hepatocyte CLint [15]: < 1 µL/min/1e6 cells
microsomal CLint [16]: 58 µL/min/mg

CC[C@@H]1[C@H](F)C(=O)N[C@@H]1COc1nccc2cc(C(N)=O)c(OC)cc12 [ZIMLOVISERTIB]
inhibition of growth at 0.33 µM (OCI-Ly10 [2]): 172%
inhibition of growth at 0.33 µM (OCI-Ly10 [3]): 92%
inhibition of growth at 0.33 µM (OCI-Ly10 [4]): 171%
inhibition of growth at 0.17 µM (SUD4 [7]): 1%
inhibition of growth at 10 µM (OCI-Ly10 [8]): 155%
inhibition of growth at 3.3 µM (SUD4 [9]): 6%
inhibition of growth at 0.17 µM (SUD4 [11]): 1%
inhibition of growth at 1.7 µM (SUD4 [12]): 1%
inhibition of growth at 1.7 µM (OCI-Ly10 [13]): 170%

Cc1ncc(-c2nc3c(NC(C)C)nc(Nc4cnn(C5CC6(C5)CN(C)C6)c4)nc3cc2F)cn1
inhibition of growth at 3.3 µM (OCI-Ly10 [1]): 105%
inhibition of growth at 0.33 µM (OCI-Ly10 [2]): 183%
inhibition of growth at 0.33 µM (OCI-Ly10 [3]): 158%
inhibition of growth at 0.33 µM (OCI-Ly10 [4]): 185%
IC50 [5]: 2 nM
IC50 [6]: 1500 nM
inhibition of growth at 0.17 µM (SUD4 [7]): 3%
inhibition of growth at 10 µM (OCI-Ly10 [8]): 198%
inhibition of growth at 3.3 µM (SUD4 [9]): 7%
Papp A→B at 6 h [10]: 7.7 ×10⁻⁶ cm/s
inhibition of growth at 0.17 µM (SUD4 [11]): 3%
inhibition of growth at 1.7 µM (SUD4 [12]): 3%
inhibition of growth at 1.7 µM (OCI-Ly10 [13]): 197%
inhibition of growth at 10 µM (OCI-Ly10 [14]): 157%
hepatocyte CLint [15]: < 1 µL/min/1e6 cells
microsomal CLint [16]: < 3 µL/min/mg
